Molecular target: Prothrombin (Homo sapiens, UniProt P00734)
Experiment: Inhibition of thrombin (unknown origin)

| Compound | Ki [nM] |
| --- | --- |
| N=C(N)c1ccc(CNC(=O)CN2C(=O)C(NS(=O)(=O)c3ccc4c(c3)CCO4)CCc3ccccc32)cc1 (configuration not stated) | 15.8 |
| COc1ccc(OC)c(S(=O)(=O)NC2CCCCN(CC(=O)NCc3ccc(C(=N)N)cc3)C2=O)c1 (configuration not stated) | 10 |

From ChEMBL document CHEMBL2380282, “CROSS: an efficient workflow for reaction-driven rescaffolding and side-chain optimization using robust chemical reactions and available reagents” (J Med Chem, 2013)
